According to publication PMC12668308, “A Novel Antimalarial Agent that Inhibits Protein Synthesis in Plasmodium falciparum” (Angewandte Chemie (International Ed. in English), 2025):

Assays:
[1] = system: cytosolic ribosomal subunits; assay: iSPP assay, P. falciparum lysate; assay type: binding, Plasmodium falciparum; details: lysate incubated with 100 µM; 104 stabilized proteins in total for 31
Excerpt: To further elucidate the MoA of 31, an integral solvent‐induced protein precipitation (iSPP) assay was employed as recently described.^[ [26] ^] iSPP utilizes a solvent mixture (acetone/ethanol/acetic acid) to induce protein denaturation, allowing the detection of drug‐protein interactions by quantitative mass spectrometry based on changes in protein stability due to compound binding using cellular lysates from in vitro blood‐stage P. falciparum parasites.
P. falciparum NF54 lysates were extracted as described in ^[26^] . The parasite asynchronous culture was extracted once 3-5% parasitemia was reached. Saponin lysis was done as described in 2.2.10. […] The soluble protein fraction (supernatant) was collected and the protein content was quantified using the BCA assay (Pierce™ BCA Protein Assay Kit, Thermo Fisher Scientific). […]
The raw LFQ-DIA intensity values of biological replicates across all conditions were normalized to the median abundance using Excel. […] Dose-dependent curves were generated using normalized protein intensity values, expressed as a ratio to the vehicle control. […]

[2] = system: Uncharacterized protein (W7JXH4); assay: iSPP profiling, P. falciparum lysate; assay type: binding, Plasmodium falciparum
Procedure: P. falciparum NF54 lysates were extracted as described in ^[26^] . The parasite asynchronous culture was extracted once 3-5% parasitemia was reached. Saponin lysis was done as described in 2.2.10. Once the parasite pellet was obtained, 2.5 volumes of ice-cold lysis buffer (50 mM Tris/HCl pH 7.5 (Avantor), 5% glycerol (Sigma-Aldrich), 150 mM NaCl (Carl Roth), 1.5 mM MgCl2 (Sigma-Aldrich), 1 mM DTT (Carl Roth), 0.8% IGEPAL CA-630 (Sigma-Aldrich), 1X Halt Protease and Phosphatase Inhibitor-Cocktails EDTA-free (Thermo Fisher Scientific)) was added to the parasite pellet. The lysate solution was subjected to three cycles of flash freeze-thaw with liquid nitrogen and ddH2O at RT. The lysates were centrifuged at 20,000 g for 20 minutes at 4 °C. The soluble protein fraction (supernatant) was collected and the protein content was quantified using the BCA assay (Pierce™ BCA Protein Assay Kit, Thermo Fisher Scientific). The lysate was stored at -80 °C until further use.
The P. falciparum lysate was thawed on ice and diluted to 0.8 mg/mL. […] Subsequently, the samples were incubated at room temperature for 30 minutes using a rotating mixer. After distribution into a 96-well plate, the samples were treated with increasing concentrations of A.E.A. (v/v) ranging from 14% to 28% (14, 16, 18, 20, 22, 24, 26, and 28%). Following a 20-minute incubation at 37°C with shaking at 750 rpm, the samples were centrifuged at 4400 g for 35 minutes to remove precipitated proteins. The soluble fractions were then pooled in equal volumes into a single sample using the Bravo Automated Liquid Handling Platform. The pooled samples were subsequently prepared for LC-MS/MS analysis.
The raw LFQ-DIA intensity values of biological replicates across all conditions were normalized to the median abundance using Excel. The normalized values were then log2 transformed in Perseus (v2.0.10.0).^[58^] Missing values were imputed from a normal distribution (width 0.3, down shift 1.5), and p-values were obtained using a two-sample t-test over replicates with a permutation-based false discovery rate correction (FDR 0.05). Volcano plots were generated in RStudio using the EnhancedVolcano package (v. 1.20.0), ^[59^] plotting proteins by statistical significance (y-axis: –Log10 p-value) versus the magnitude of change (x-axis: log2 fold change of protein intensities for each compound condition relative to the vehicle control). The heatmap was generated in Perseus (v2.0.10.0). Dose-dependent curves were generated using normalized protein intensity values, expressed as a ratio to the vehicle control. Plots were created in GraphPad Prism (v8.3.0) using a nonlinear regression model.

Row | SMILES | significantly stabilized proteins belonging to cytosolic ribosomal subunits [1] | log2FC ([2]; 100 µM compound 34) | log2FC ([2]; 10 µM) | log2FC ([2]; 50 µM) | log2FC ([2]; 100 µM compound 31) | log2FC ([2]; 10^-2 µM) | log2FC ([2]; 10^-3 µM)
1 | O=C(Nc1cc(CN2CCOCC2)ccc1F)c1cccc(Oc2cc(C(F)(F)F)ccn2)c1 [Compound 34, N-(2-Fluoro-5-(morpholinomethyl)phenyl)-3-((4-(trifluoromethyl)pyridin-2-yl)oxy)benzamide] | failed to stabilize any cytosolic ribosomal proteins | 0.3904 |  |  |  |  | 
2 | CN1CCN(Cc2ccc(O)c(NC(=O)c3cccc(Oc4cc(C(F)(F)F)ccn4)c3)c2)CC1 [Compound 31, N-(2-hydroxy-5-((4-methylpiperazin-1-yl)methyl)phenyl)-3-((4-(trifluoromethyl)pyridin-2-yl)oxy)benzamide] | 12 |  | 1.06 | 0.61 | 0.70 | 0.54 | 0.61
